Earlier results on one compound are cited in patent US5006550A, “Chroman esters of phenols and benzoic acids having retinoid-like activity” (Allergan, Inc., priority 1989, dated 1991).

The series relates to ornithine decarboxylase (ODC). The following applies: background statement on retinoic acid.

Regarding `CC1=C(/C=C/C(C)=C/C=C/C(C)=C/C(=O)O)C(C)(C)CCC1` [Retinoic acid], the “inhibition of induction of ODC activity by TPA (in words)” value is “inhibits this induction of ODC activity by TPA”.
